# Measured values published in patent publication US9434711B2 (Janssen Pharmaceutica, NV, priority 2007, dated 2016).
# Target: canine TRPM8 (Canis lupus familiaris, UniProt Q1A7N1)
# Test: In Vitro Canine TRPM8 Functional Assay (Ca2+ fluorescence, icilin activation)
# Type: cell-based
# Conditions: for IC50: HEK293 cells stably expressing canine TRPM8, icilin activation, eight-point dose-response, read-out: IC50; for inhibition at 0.2 µM / % Inh @ 0.2 (μM): compound at 0.2 μM, canine TRPM8, icilin activation; for inhibition at 0.2 µM: read-out: % Inh @ 0.2
# Procedure, shortened: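 Cells (HEK293, stable canine TRPM8) are seeded 24 h before assay. They are then dye-loaded with Calcium 3 at 37 °C followed by room temperature. Compound is added and monitored for 5 min, after which icilin (~80% maximal response) is added.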
# Chain of canine TRPM8 (Q1A7N1 1-1104): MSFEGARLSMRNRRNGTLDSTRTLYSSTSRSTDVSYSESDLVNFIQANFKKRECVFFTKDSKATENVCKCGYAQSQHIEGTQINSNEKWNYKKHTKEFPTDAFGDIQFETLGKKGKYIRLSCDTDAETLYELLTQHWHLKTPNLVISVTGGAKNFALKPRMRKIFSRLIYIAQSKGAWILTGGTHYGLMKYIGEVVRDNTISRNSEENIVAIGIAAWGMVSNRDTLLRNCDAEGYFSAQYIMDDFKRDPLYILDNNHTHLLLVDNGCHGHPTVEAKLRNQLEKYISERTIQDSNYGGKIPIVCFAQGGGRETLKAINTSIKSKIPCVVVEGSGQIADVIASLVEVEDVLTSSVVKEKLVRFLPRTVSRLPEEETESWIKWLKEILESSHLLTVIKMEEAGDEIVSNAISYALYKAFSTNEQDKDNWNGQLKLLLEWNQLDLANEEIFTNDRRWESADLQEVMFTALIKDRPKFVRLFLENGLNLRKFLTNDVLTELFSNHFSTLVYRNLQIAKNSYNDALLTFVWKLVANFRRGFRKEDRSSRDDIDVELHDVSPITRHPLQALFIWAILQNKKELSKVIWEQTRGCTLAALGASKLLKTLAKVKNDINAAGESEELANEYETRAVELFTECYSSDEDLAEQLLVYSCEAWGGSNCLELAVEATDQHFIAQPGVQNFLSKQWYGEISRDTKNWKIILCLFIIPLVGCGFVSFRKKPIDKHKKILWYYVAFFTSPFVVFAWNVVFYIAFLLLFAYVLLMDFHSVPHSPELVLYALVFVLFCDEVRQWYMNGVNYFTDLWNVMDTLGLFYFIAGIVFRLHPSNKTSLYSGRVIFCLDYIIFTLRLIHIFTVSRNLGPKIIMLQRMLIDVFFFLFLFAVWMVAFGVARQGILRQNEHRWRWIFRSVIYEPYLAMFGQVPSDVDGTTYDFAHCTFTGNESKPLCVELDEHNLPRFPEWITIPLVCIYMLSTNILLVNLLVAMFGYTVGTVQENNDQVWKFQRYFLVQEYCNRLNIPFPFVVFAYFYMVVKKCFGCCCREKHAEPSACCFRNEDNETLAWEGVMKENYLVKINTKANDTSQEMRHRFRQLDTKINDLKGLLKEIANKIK
SMILES,IC50,inhibition at 0.2 µM,% Inh @ 0.2 (μM)
"CC(=O)c1ccc(S(=O)(=O)N(Cc2ccc(F)c(C(F)(F)F)c2)c2sc3ccccc3c2Br)cc1 [Compound 312, N-(3-Bromo-benzo[b]thiophen-2-yl)-N-(4-fluoro-3-trifluoromethyl-benzyl)-4-acetyl-benzenesulfonamide]",0.011 µM,102%,
"COC(=O)c1ccc(S(=O)(=O)N(Cc2ccc(F)c(C(F)(F)F)c2)c2sc3ccccc3c2C(C)=O)cc1 [Compound 313, N-(3-Acetyl-benzo[b]thiophen-2-yl)-N-(4-fluoro-3-trifluoromethyl-benzyl)-4-carbomethoxy-benzenesulfonamide]",0.021 µM,102%,
"CC(=O)c1c(N(Cc2ccc(F)c(C(F)(F)F)c2)S(=O)(=O)c2ccccc2)sc2ccccc12 [Compound 314, N-(3-Acetyl-benzo[b]thiophen-2-yl)-N-(4-fluoro-3-trifluoromethyl-benzyl)-benzenesulfonamide]",0.01 µM,102%,
"CN(C)S(=O)(=O)N(Cc1ccc(F)c(C(F)(F)F)c1)c1cc2ccccc2s1 [Compound 315, N-(Benzo[b]thiophen-2-yl)-N-(4-fluoro-3-trifluoromethyl-benzyl)-N′,N′-dimethlysulfamide]",0.064 µM,,99%
"CC(C)(O)c1c(N(Cc2ccc(F)c(C(F)(F)F)c2)S(=O)(=O)c2ccccc2)sc2ccccc12 [Compound 316, N-(4-Fluoro-3-trifluoromethyl-benzyl)-N-[3-(1-hydroxy-1-methyl-ethyl)-benzo[b]thiophen-2-yl]-benzenesulfonamide]",0.01 µM,101%,
"CN(C)S(=O)(=O)N(Cc1ccc(F)c(C(F)(F)F)c1)c1sc2ccccc2c1Br [Compound 317, N-(3-Bromo-benzo[b]thiophen-2-yl)-N-(4-fluoro-3-trifluoromethyl-benzyl)-N′,N′-dimethlysulfamide]",0.017 µM,,102%
"CC(=O)c1c(N(Cc2ccc(F)c(C(F)(F)F)c2)S(=O)(=O)c2ccc(C(=O)O)cc2)sc2ccccc12 [Compound 318, N-(3-Acetyl-benzo[b]thiophen-2-yl)-N-(4-fluoro-3-trifluoromethyl-benzyl)-4-carboxy-benzenesulfonamide]",0.015 µM,101%,
"O=S(=O)(c1cccnc1Cl)N(Cc1ccc(F)c(C(F)(F)F)c1)c1sc2ccccc2c1Br [Compound 319, N-(3-Bromo-benzo[b]thiophen-2-yl)-N-(4-fluoro-3-trifluoromethyl-benzyl)-2-chloro-pyridin-3-ylsulfonamide]",0.024 µM,100%,
"O=S(=O)(c1ccc(Cl)nc1)N(Cc1ccc(F)c(C(F)(F)F)c1)c1sc2ccccc2c1Br [Compound 320, N-(3-Bromo-benzo[b]thiophen-2-yl)-N-(4-fluoro-3-trifluoromethyl-benzyl)-2-chloro-pyridin-5-ylsulfonamide]",0.01 µM,100%,
"O=S(=O)(c1cccnc1Cl)N(Cc1ccc(F)c(C(F)(F)F)c1)c1sc2ccccc2c1Cl [Compound 321, N-(3-Chloro-benzo[b]thiophen-2-yl)-N-(4-fluoro-3-trifluoromethyl-benzyl)-2-chloro-pyridin-3-ylsulfonamide]",0.07 µM,81%,
"O=S(=O)(c1cccnc1)N(Cc1ccc(C(F)(F)F)c(F)c1)c1sc2ccccc2c1Br [Compound 322, N-(3-Bromo-benzo[b]thiophen-2-yl)-N-(3-fluoro-4-trifluoromethyl-benzyl)-pyridin-3-ylsulfonamide]",0.01 µM,99%,
"O=S(=O)(c1cccnc1)N(Cc1ccc(OC(F)(F)F)cc1)c1sc2ccccc2c1Br [Compound 323, N-(3-Bromo-benzo[b]thiophen-2-yl)-N-(4-trifluoromethoxy-benzyl)-pyridin-3-ylsulfonamide]",0.01 µM,102%,
"O=S(=O)(c1cccnc1)N(Cc1cc(Cl)ccc1F)c1sc2ccccc2c1Br [Compound 324, N-(3-Bromo-benzo[b]thiophen-2-yl)-N-(2-fluoro-5-chloro-benzyl)-pyridin-3-ylsulfonamide]",0.015 µM,100%,
"O=S(=O)(c1ccccc1)N(Cc1ccc(OC(F)(F)F)cc1)c1sc2ccccc2c1C(F)(F)F [Compound 325, N-(3-Trifluoromethyl-benzo[b]thiophen-2-yl)-N-(4-trifluoromethoxy-benzyl)-benzenesulfonamide]",0.005 µM,102%,
"CC(=O)Nc1ccc(S(=O)(=O)N(Cc2ccc(F)c(C(F)(F)F)c2)c2sc3ccccc3c2C)cc1Cl [Compound 336, N-(3-Methyl-benzo[b]thiophen-2-yl)-N-(4-fluoro-3-trifluoromethyl-benzyl)-(3-chloro-4-acetamide)-benzenesulfonamide]",0.015 µM,,101%
"CCCCN(c1sc2ccccc2c1C(C)(C)O)S(=O)(=O)c1ccc(C(C)(C)O)cc1 [Compound 341, N-(Butyl)-N-(3-(1-hydroxy-1-methyl-ethyl)-benzo[b]thiophen-2-yl)-4-(2-1-hydroxy-1-methyl-ethyl)-benzenesulfonamide]",0.014 µM,,96%

# Continued, values first:
IC50,inhibition at 0.2 µM,% Inh @ 0.2 (μM),SMILES
,14%,,"Cc1c(N(Cc2ccc(F)c(C(F)(F)F)c2)S(=O)(=O)c2ccc(-c3cc(C(F)(F)F)nn3C)s2)sc2ccccc12 [Compound 326, N-(3-Methyl-benzo[b]thiophen-2-yl)-N-(4-fluoro-3-trifluoromethyl-benzyl)-5-(2-methyl-5-trifluoromethyl-2H-pyrazol-3-yl)-thien-2-ylsulfonamide]"
0.037 µM,97%,,"COC(=O)c1ccc(S(=O)(=O)N(Cc2ccc(F)c(C(F)(F)F)c2)c2sc3ccccc3c2C)o1 [Compound 327, N-(3-Methyl-benzo[b]thiophen-2-yl)-N-(4-fluoro-3-trifluoromethyl-benzyl)-5-carbomethoxy-furan-2-yl-sulfonamide]"
0.035 µM,94%,,"Cc1c(N(Cc2ccc(F)c(C(F)(F)F)c2)S(=O)(=O)c2cn(C)nc2C(F)(F)F)sc2ccccc12 [Compound 328, N-(3-Methyl-benzo[b]thiophen-2-yl)-N-(4-fluoro-3-trifluoromethyl-benzyl)-1-methyl-3-trifluoromethyl-1H-pyrazol-4-ylsulfonamide]"
,17%,,"Cc1c(N(Cc2ccc(F)c(C(F)(F)F)c2)S(=O)(=O)c2ccc(-c3cc(C(F)(F)F)on3)s2)sc2ccccc12 [Compound 329, N-(3-Methyl-benzo[b]thiophen-2-yl)-N-(4-fluoro-3-trifluoromethyl-benzyl)-5-(5-trifluoromethyl-isoxazol-3-yl)-thien-2-ylsulfonamide]"
0.088 µM,80%,,"Cc1c(N(Cc2ccc(F)c(C(F)(F)F)c2)S(=O)(=O)c2cnc(Cl)c(Br)c2)sc2ccccc12 [Compound 330, N-(3-Methyl-benzo[b]thiophen-2-yl)-N-(4-fluoro-3-trifluoromethyl-benzyl)-5-bromo-6-chloro-pyridin-3-ylsulfonamide]"
0.09 µM,71%,,"Cc1c(N(Cc2ccc(F)c(C(F)(F)F)c2)S(=O)(=O)c2cnc(Cl)c(Cl)c2)sc2ccccc12 [Compound 331, N-(3-Methyl-benzo[b]thiophen-2-yl)-N-(4-fluoro-3-trifluoromethyl-benzyl)-5,6-dichloro-pyridin-3-ylsulfonamide]"
0.009 µM,101%,,"Cc1nnc(-c2cccc(S(=O)(=O)N(Cc3ccc(F)c(C(F)(F)F)c3)c3sc4ccccc4c3C)c2)o1 [Compound 333, N-(3-Methyl-benzo[b]thiophen-2-yl)-N-(4-fluoro-3-trifluoromethyl-benzyl)-3-(5-methyl-[1,3,4]oxadiazol-2-yl)-benzenesulfonamide]"
0.006 µM,98%,,Cc1c(N(Cc2ccc(F)c(C(F)(F)F)c2)S(=O)(=O)c2ccc(-c3cnco3)cc2)sc2ccccc12 [Compound 334]
0.001 µM,101%,,"CC(O)c1c(N(Cc2ccc(F)c(C(F)(F)F)c2)S(=O)(=O)c2ccc(C(=O)O)cc2)sc2ccccc12 (centres unmarked) [Compound 335, N-(4-Fluoro-3-trifluoromethyl-benzyl)-N-[3-(1-hydroxy-ethyl)-benzo[b]thiophen-2-yl]-4-carboxybenzenesulfonamide]"
0.019 µM,,101%,Cc1c(N(Cc2ccc(F)c(C(F)(F)F)c2)S(=O)(=O)c2c(Cl)nc3sccn23)sc2ccccc12 [Compound 337]
0.029 µM,,,"O=S(=O)(c1cnccc1Cl)N(Cc1ccc(F)c(C(F)(F)F)c1)c1sc2ccccc2c1Cl [Compound 338, N-(3-Chloro-benzo[b]thiophen-2-yl)-N-(4-fluoro-3-trifluoromethyl-benzyl)-4-chloro-pyridin-3-ylsulfonamide]"
,95%,,O=S(=O)(c1ccc(Cl)nc1)N(Cc1ccc(F)c(C(F)(F)F)c1)c1sc2ccccc2c1Cl [Compound 338]
0.0262 µM,94%,,"CCCCN(c1sc2ccccc2c1C(C)=O)S(=O)(=O)c1ccc(C(=O)OC)cc1 [Compound 339, N-(3-Acetyl-benzo[b]thiophen-2-yl)-N-(butyl)-4-carbomethoxy-benzenesulfonamide]"
,52%,,"CCCCN(c1cc2ccccc2s1)S(=O)(=O)c1cccnc1 [Compound 340, N-(Benzo[b]thiophen-2-yl)-N-(butyl)-pyridin-3-yl-sulfonamide]"
0.013 µM,100%,,"CCCCN(c1sc2ccccc2c1C(C)=O)S(=O)(=O)c1ccc(C(=O)O)cc1 [Compound 342, N-(3-Acetyl-benzo[b]thiophen-2-yl)-N-(butyl)-4-carboxy-benzenesulfonamide]"
0.019 µM,98%,,"CCCCN(c1sc2ccccc2c1C(C)(C)O)S(=O)(=O)c1ccc(C(=O)O)cc1 [Compound 343, N-(Butyl)-N-(3-(1-hydroxy-1-methyl-ethyl)-benzo[b]thiophen-2-yl)-4-carboxy-benzenesulfonamide]"
